Measurements taken from patent publication US6749850B1, “Methods, compositions and kits for promoting recovery from damage to the central nervous system” (The General Hospital Corporation, priority 1999, dated 2004).

Assays:
[1] = test system: rat stroke model (focal cerebral infarction, middle cerebral artery electrocoagulation); assay: Example 1: sensorimotor behavioural tests after intracisternal treatment in rat stroke model; type: in vivo
Description: In this example, fetal mouse neural stem cells (NSC) with or without basic fibroblast growth factor (bFGF) were administered intracisternally in a model of stroke recovery in rats. Male Sprague-Dawley rats, 300-350 grams, were handled for one week before surgery. They received an antibiotic, cefazolin sodium (40 mg/kg, i.p.), one day before stroke surgery. On the day of stroke surgery, animals were anesthetized by 2% halothane in a […]/oxygen mixture (2:1). Focal cerebral infarction, (stroke) was performed by proximal electrocoagulation of the middle cerebral artery, as described previously (Kawamata et al. (1999) Exp. Neurol. 158, 89-96; Tamura et al. (1981) J. Cereb. Blood Flow Metab. 1, 53-60). […] This technique produces a robust and reproducible infarct, or region of cell death, in the dorsolateral cerebral cortex and underlying striatum. Animals received another injection of cefazolin sodium (40 mg/kg, i.p.) immediately after surgery. They were then allowed to awaken from anesthesia.
Twenty-four hours after stroke surgery, animals received an intracisternal injection of either: (1) vehicle, (2) NSC (10^6 cells), (3) bFGF (0.5 μg), or (4) NSC+bFGF. Intracisternal injection in 50 μl total volume was done through percutaneous injection into the cisterna magna under halothane anesthesia. This same procedure was repeated two days later so that animals received treatment on days 1 and 3 following stroke. Cyclosporin, an immunosuppressant, was administered at 10 mg/kg, i.p. for the duration of the experiment.
The cerebral infarcts produced by the procedure cause sensorimotor dysfunction of the contralateral hindlimb and forelimb. For the next month following stroke, a number of neurological tests were done to assess sensorimotor function of the contralateral limbs. These tests include both the forelimb and hindlimb placing tests which test the animal's ability to place the limb on a tabletop in response to visual, tactile, proprioceptive, and whisker stimulation. […]

[2] = test system: rat stroke model (focal cerebral infarction, middle cerebral artery electrocoagulation); assay: Example 2: behavioural tests after intracerebral NSC and intracisternal bFGF in rat stroke model; type: in vivo; conditions: single administration one day after stroke
Description: In a second experiment, NSC were injected directly into the brain into tissue surrounding focal strokes. bFGF was injected intracisternally, as before. In this experiment only one administration of NSC or bFGF was performed at one day after stroke.
In this experiment, animals were handled for one week before surgery. In addition, they were trained on an additional test, the paw reaching test (see below) for 10 days before surgery. As before, they received cefazolin sodium (40 mg/kg, i.p.) before surgery. On the day of surgery, electrocoagulation of the proximal middle cerebral artery was done, as described previously (Kawamata et al. (1996) J. Cereb. Blood Flow Metab. 16, 542-547; Kawamata et al. (1997) Proc. Nat. Acad Sci. 94, 8179-8184; Kawamata et al. (1999) Exp. Neurol. 158, 89-96). They received another injection of cefazolin sodium, 40 mg/kg, i.p. after surgery.
At one day after stroke, animals received either: (1) vehicle injection into periinfarct tissue, and vehicle injection into the cisterna magna, (2) NSC (10^6 cells) into periinfarct tissue and vehicle into the cisterna magna, (3) vehicle into periinfarct tissue and bFGF (0.5 μg) into the cisterna magna or (4) the combination NSC (10^6 cells) into periinfarct tissue and bFGF (0.5 μg) into the cisterna magna.
These injections were done with a volume of 25 μl each under 2% halothane anesthesia. […]

animal models of stroke = conditions: administered starting a day or more after stroke; cited from earlier work
rat stroke model = conditions: BDNF administered conjointly with bone marrow cells; cited from earlier work

| Molecule | recovery on limb placing tests (forelimb and hindlimb) ([1]; intracisternal on days 1 and 3 after stroke, NSC 10^6 cells, bFGF 0.5 μg, compared to placebo, FIGS. 1A-1B) | body swing test ([1]; intracisternal on days 1 and 3 after stroke, compared to placebo, FIG. 1C) | sensorimotor recovery of the contralateral limbs (summary) ([1]; intracisternal starting one day after stroke) | behavioral outcome overall (summary of tests) [2] | recovery on forelimb and hindlimb placing tests ([2]; NSC 10^6 cells periinfarct, bFGF 0.5 μg cisterna magna, compared to placebo, FIGS. 2A-2B) | recovery on tests of sensorimotor function of the impaired limbs (animal models of stroke) | recovery in a rat stroke model (rat stroke model) |
| --- | --- | --- | --- | --- | --- | --- | --- |
| bFGF: basic fibroblast growth factor, a protein that supports survival and axonal outgrowth from neurons | significantly enhanced recovery compared to placebo | No differences | significantly enhance sensorimotor recovery | improved behavioral outcome on some tests | superiority in recovery | recover more quickly and to a greater extent |  |
| BDNF: polypeptide growth factor, administered conjointly with bone marrow cells in a cited study (Chen et al. 2000) (protein, UniProt P23560 19-247, looked up) Neurotrophic factor BDNF …: APMKEANIRGQGGLAYPGVRTHGTLESVNGPKAGSRGLTSLADTFEHVIEELLDEDQKVRPNEENNKDADLYTSRVMLSSQVPLEPPLLFLLEEYKNYLDAANMSMRVRRHSDPARRGELSVCDSISEWVTAADKKTAVDMSGGTVTVLEKVPVSKGQLKQYFYETKCNPMGYTKEGCRGIDKRHWNSQCRTTQSYVRALTMDSKKRIGWRFIRIDTSCVCTLTIKRGR |  |  |  |  |  |  | improve recovery |
